Reference: patent US20200283384A1, “ANTIBACTERIAL COMPOUNDS AND METHODS OF USE THEREOF” (Wayne State University, priority 2016, published 2020)
In brackets after ≈: the same amount, converted by molar mass. Like-named read-outs stand apart in the source and are kept apart here. One block for each compound: values may come before it.

Assays:
S. aureus isolates = details: for MIC: Staphylococcus aureus
[1] = tested on: 24 strains of S. aureus (SA1-SA24); test: Broth micro-dilution MIC against 24 strains of S. aureus; assay type: cell-based; details: for MIC: Staphylococcus aureus, read-out: Compound MIC
Method: Compounds were tested for their anti-bacterial activity against 56 clinical isolates including 24 clinical isolates of methicillin resistant S. aureus (MRSA) and methicillin-susceptible S. aureus (MSSA), 8 strains of Enterococcus, 8 strains of Acinetobacter baumannii, 8 strains of Klebsiella pneumoniae, and 8 strains of Pseudomonas aeruginosa using a standard broth micro-dilution method as recommended by the Clinical and Laboratory Standard Institute (CLSI, M100, s23).
HN18 HN19, and HN34 were tested by a broth micro-dilution method to determine their minimal inhibitory concentration (MIC) against 24 strains of S. aureus (SA1-SA24) (Table 2). […]. Furthermore, the results for HN18 and HN34 were consistent across four repeated experiments. […]

[2] = tested on: S. aureus clinical isolates; test: Synergistic effect with oxacillin (oxacillin MIC alone and in presence of SIC); assay type: cell-based, Staphylococcus aureus; details: Staphylococcus aureus
Method: The synergistic effect (interaction) of HN18 and HN34 with different antibiotics against S. aureus clinical isolates was studied. The oxacillin MIC values of 8 clinical isolates of Staphylococcus aureus were determined. The oxacillin MIC of the same isolates were also determined after they were exposed to SIC of HN18, HN34 (Table 5). […] Column 2 and 3 show the oxacillin MIC value of the same isolates in presence of SIC of HN18 and HN34 respectively.

Compound: O=C(N[C@H](CO)[C@H](O)c1ccc([N+](=O)[O-])cc1)C(Cl)Cl [chloramphenicol]
- MIC (S. aureus isolates; read-out: Chloramphenicol MIC): > 40 µg/mL

- MIC ([1]; isolate SA1, experiment I): 1 µg/mL (≈ 2.03 µM)
- MIC ([1]; isolate SA1, experiment II): 8 µg/mL (≈ 16.2 µM)
- MIC ([1]; isolate SA1, experiment III): 8 µg/mL (≈ 16.2 µM)
- MIC ([1]; isolate SA1, experiment IV): 16 µg/mL (≈ 32.5 µM)
- MIC ([1]; isolate SA2, experiment I): 1 µg/mL (≈ 2.03 µM)
- MIC ([1]; isolate SA2, experiment II): 4 µg/mL (≈ 8.12 µM)
- MIC ([1]; isolate SA2, experiment III): 4 µg/mL (≈ 8.12 µM)
- MIC ([1]; isolate SA2, experiment IV): 8 µg/mL (≈ 16.2 µM)
- MIC ([1]; isolate SA3, experiment I): 1 µg/mL (≈ 2.03 µM)
- MIC ([1]; isolate SA3, experiment II): 4 µg/mL (≈ 8.12 µM)
- MIC ([1]; isolate SA3, experiment III): 8 µg/mL (≈ 16.2 µM)
- MIC ([1]; isolate SA3, experiment IV): 8 µg/mL (≈ 16.2 µM)
- MIC ([1]; isolate SA4, experiment I): 2 µg/mL (≈ 4.06 µM)
- MIC ([1]; isolate SA4, experiment II): 4 µg/mL (≈ 8.12 µM)
- MIC ([1]; isolate SA4, experiment III): 8 µg/mL (≈ 16.2 µM)
- MIC ([1]; isolate SA4, experiment IV): 1 µg/mL (≈ 2.03 µM)
- MIC ([1]; isolate SA5, experiment I): 0.5 µg/mL (≈ 1.02 µM)
- MIC ([1]; isolate SA5, experiment II): 2 µg/mL (≈ 4.06 µM)
- MIC ([1]; isolate SA5, experiment III): 4 µg/mL (≈ 8.12 µM)
- MIC ([1]; isolate SA5, experiment IV): 8 µg/mL (≈ 16.2 µM)
- MIC ([1]; isolate SA6, experiment I): 0.5 µg/mL (≈ 1.02 µM)
- MIC ([1]; isolate SA6, experiment II): 4 µg/mL (≈ 8.12 µM)
- MIC ([1]; isolate SA6, experiment III): 4 µg/mL (≈ 8.12 µM)
- MIC ([1]; isolate SA6, experiment IV): 8 µg/mL (≈ 16.2 µM)
- MIC ([1]; isolate SA7, experiment I): 0.5 µg/mL (≈ 1.02 µM)
- MIC ([1]; isolate SA7, experiment II): 4 µg/mL (≈ 8.12 µM)
- MIC ([1]; isolate SA7, experiment III): 4 µg/mL (≈ 8.12 µM)
- MIC ([1]; isolate SA7, experiment IV): 8 µg/mL (≈ 16.2 µM)
- MIC ([1]; isolate SA8, experiment I): 0.5 µg/mL (≈ 1.02 µM)
- MIC ([1]; isolate SA8, experiment II): 4 µg/mL (≈ 8.12 µM)
- MIC ([1]; isolate SA8, experiment III): 8 µg/mL (≈ 16.2 µM)
- MIC ([1]; isolate SA8, experiment IV): 8 µg/mL (≈ 16.2 µM)
- MIC ([1]; isolate SA9, experiment I): 0.5 µg/mL (≈ 1.02 µM)
- MIC ([1]; isolate SA9, experiment II): 0.5 µg/mL (≈ 1.02 µM)
- MIC ([1]; isolate SA10, experiment I): 2 µg/mL (≈ 4.06 µM)
- MIC ([1]; isolate SA10, experiment II): 4 µg/mL (≈ 8.12 µM)
- MIC ([1]; isolate SA11, experiment I): 1 µg/mL (≈ 2.03 µM)
- MIC ([1]; isolate SA11, experiment II): 2 µg/mL (≈ 4.06 µM)
- MIC ([1]; isolate SA12, experiment I): 2 µg/mL (≈ 4.06 µM)
- MIC ([1]; isolate SA12, experiment II): 4 µg/mL (≈ 8.12 µM)
- MIC ([1]; isolate SA13, experiment I): 1 µg/mL (≈ 2.03 µM)
- MIC ([1]; isolate SA13, experiment II): 4 µg/mL (≈ 8.12 µM)
- MIC ([1]; isolate SA14, experiment I): 2 µg/mL (≈ 4.06 µM)
- MIC ([1]; isolate SA14, experiment II): 2 µg/mL (≈ 4.06 µM)
- MIC ([1]; isolate SA15, experiment I): 1 µg/mL (≈ 2.03 µM)
- MIC ([1]; isolate SA15, experiment II): 1 µg/mL (≈ 2.03 µM)
- MIC ([1]; isolate SA16, experiment I): 0.25 µg/mL (≈ 0.508 µM)
- MIC ([1]; isolate SA16, experiment II): 0.5 µg/mL (≈ 1.02 µM)
- MIC ([1]; isolate SA17, experiment I): 2 µg/mL (≈ 4.06 µM)
- MIC ([1]; isolate SA17, experiment II): 4 µg/mL (≈ 8.12 µM)
- MIC ([1]; isolate SA18, experiment I): 1 µg/mL (≈ 2.03 µM)
- MIC ([1]; isolate SA18, experiment II): 4 µg/mL (≈ 8.12 µM)
- MIC ([1]; isolate SA19, experiment I): 1 µg/mL (≈ 2.03 µM)
- MIC ([1]; isolate SA19, experiment II): 4 µg/mL (≈ 8.12 µM)
- MIC ([1]; isolate SA20, experiment I): 1 µg/mL (≈ 2.03 µM)
- MIC ([1]; isolate SA20, experiment II): 4 µg/mL (≈ 8.12 µM)
- MIC ([1]; isolate SA21, experiment I): 2 µg/mL (≈ 4.06 µM)
- MIC ([1]; isolate SA21, experiment II): 8 µg/mL (≈ 16.2 µM)
- MIC ([1]; isolate SA22, experiment I): 2 µg/mL (≈ 4.06 µM)
- MIC ([1]; isolate SA22, experiment II): 4 µg/mL (≈ 8.12 µM)
- MIC ([1]; isolate SA23, experiment I): 2 µg/mL (≈ 4.06 µM)
- MIC ([1]; isolate SA23, experiment II): 4 µg/mL (≈ 8.12 µM)
- MIC ([1]; isolate SA24, experiment I): 1 µg/mL (≈ 2.03 µM)
- MIC ([1]; isolate SA24, experiment II): 4 µg/mL (≈ 8.12 µM)
Compound: COc1cc(/C=C/C(=O)C(=Cc2ccc(F)c(F)c2)C(=O)/C=C/c2ccc(O)c(OC)c2)ccc1O [HN19, (1E,6E)-1,7-bis(4-hydroxy-3-methoxyphenyl)hepta-1,6-diene{4(3,4 difluorobenzylidene)}-3,5-dione]
- Effect against the panel of S. aureus strains ([1]; 24 strains SA1-SA24, broth micro-dilution): effective

Compound: Cc1onc(-c2ccccc2)c1C(=O)N[C@@H]1C(=O)N2[C@@H]1SC(C)(C)[C@@H]2C(=O)O [Oxacillin, reference compound]
- MIC ([2]; isolate SA3, oxacillin tested alone): > 16 µg/mL
- MIC ([2]; isolate SA4, oxacillin tested alone): > 16 µg/mL
- MIC ([2]; isolate SA5, oxacillin tested alone): > 16 µg/mL
- MIC ([2]; isolate SA9, oxacillin tested alone): > 16 µg/mL
- MIC ([2]; isolate SA10, oxacillin tested alone): 16 µg/mL
- MIC ([2]; isolate SA11, oxacillin tested alone): 8 µg/mL
- MIC ([2]; isolate SA15, oxacillin tested alone): > 16 µg/mL
- MIC ([2]; isolate SA18, oxacillin tested alone): > 16 µg/mL
- MIC (S. aureus isolates; read-out: Oxacillin MIC): > 16 µg/mL
- Oxacillin MIC (S. aureus isolates; isolates SA1, SA2, prior to exposure to sub-inhibitory concentration of HN18 and HN34): > 16 µg/mL
